#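 In this assay, cells in 96-well plates receive the compound at five concentrations for 48 hours. Endpoints are linearly interpolated between the surrounding concentrations. At the GI50, growth is halved.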 Active and inactive are the calls of the source. Rule as the data show it: active = GI50 up to about 1.1 µM and inactive = higher.
# Assays:
# Test in all cases: NCI anticancer screen, dose series, 48 h
# SNB-75 = system: SNB-75
# SW-620 = system: SW-620
# HL-60 = system: HL-60
# SF-295 = system: SF-295
# SF-539 = system: SF-539
# OVCAR-4 = system: OVCAR-4
# HT-29 = system: HT-29
# NCI-H522 = system: NCI-H522
# NCI-H226 = system: NCI-H226
# NCI-H23 = system: NCI-H23
# OVCAR-8 = system: OVCAR-8
# UACC-257 = system: UACC-257
# HCT-15 = system: HCT-15
# U-251 = system: U-251
# SNB-19 = system: SNB-19
# KM12 = system: KM12
# HOP-18 = system: HOP-18
# HOP-62 = system: HOP-62
# DMS-273 = system: DMS-273
# MOLT-4 = system: MOLT-4
# SF-268 = system: SF-268
# UO-31 = system: UO-31
# NCI-H460 = system: NCI-H460
# OVCAR-3 = system: OVCAR-3
# XF498 = system: XF498
# A498 = system: A498
# K562 = system: K562
# HOP-92 = system: HOP-92
# HCT-116 = system: HCT-116
# RPMI-8226 = system: RPMI-8226
# SN12C = system: SN12C
# SK-MEL-28 = system: SK-MEL-28
# OVCAR-5 = system: OVCAR-5
# IGROV-1 = system: IGROV-1
# COLO 205 = system: COLO 205
# EKVX = system: EKVX
# DLD-1 = system: DLD-1
# HCC 2998 = system: HCC 2998
# KM-20L2 = system: KM-20L2
# UACC-62 = system: UACC-62
# RXF 393 = system: RXF 393
# NCI/ADR-RES = system: NCI/ADR-RES
# SK-MEL-2 = system: SK-MEL-2
# A549 = system: A549
# CCRF-CEM = system: CCRF-CEM
# CAKI-1 = system: CAKI-1
# LOX IMVI = system: LOX IMVI
# MCF7 = system: MCF7
# Malme-3M = system: Malme-3M
# DMS-114 = system: DMS-114
# M19-MEL = system: M19-MEL
# SNB-78 = system: SNB-78
# SK-MEL-5 = system: SK-MEL-5
# SK-OV-3 = system: SK-OV-3
# RXF 631 = system: RXF 631
# TK-10 = system: TK-10
# 786-0 = system: 786-0
# ACHN = system: ACHN
# M14 = system: M14
# LXFL 529 = system: LXFL 529
# SR = system: SR
compound,measurement,setting,value
O=C1C=CC2OC(c3ccccc3)C(O)C2O1 (centres undefined),GI50,SNB-75,10.4 µM (inactive)
same,GI50,SW-620,2.17 µM (inactive)
same,GI50,HL-60,1.4 µM (inactive)
same,GI50,SF-295,7.71 µM (inactive)
same,GI50,SF-539,3.07 µM (inactive)
same,GI50,OVCAR-4,7.87 µM (inactive)
same,GI50,HT-29,4.53 µM (inactive)
same,GI50,NCI-H522,1.35 µM (inactive)
same,GI50,NCI-H226,1.48 µM (inactive)
same,GI50,NCI-H23,3.07 µM (inactive)
same,GI50,OVCAR-8,3.62 µM (inactive)
same,GI50,UACC-257,6.31 µM (inactive)
same,GI50,HCT-15,3.42 µM
same,GI50,U-251,10.7 µM (inactive)
same,GI50,SNB-19,11.4 µM (inactive)
same,GI50,KM12,6.76 µM (inactive)
same,GI50,HOP-18,0.984 µM (active)
same,GI50,HOP-62,12 µM (inactive)
same,GI50,DMS-273,4.91 µM (inactive)
same,GI50,MOLT-4,1.43 µM (inactive)
same,GI50,SF-268,5.53 µM (inactive)
same,GI50,UO-31,10.2 µM (inactive)
same,GI50,NCI-H460,4.7 µM (inactive)
same,GI50,OVCAR-3,3.5 µM (inactive)
same,GI50,XF498,2.8 µM (inactive)
same,GI50,A498,2.27 µM (inactive)
same,GI50,K562,3.37 µM (inactive)
same,GI50,HOP-92,2.15 µM (inactive)
same,GI50,HCT-116,2.49 µM (inactive)
same,GI50,RPMI-8226,1.39 µM (inactive)
same,GI50,SN12C,7.03 µM (inactive)
same,GI50,SK-MEL-28,4.49 µM (inactive)
same,GI50,OVCAR-5,9.38 µM (inactive)
same,GI50,IGROV-1,8.99 µM (inactive)
same,GI50,COLO 205,2.58 µM (inactive)
same,GI50,EKVX,4.91 µM (inactive)
same,GI50,DLD-1,3.89 µM (inactive)
same,GI50,HCC 2998,2.47 µM (inactive)
same,GI50,KM-20L2,5.98 µM (inactive)
same,GI50,UACC-62,4.94 µM (inactive)
same,GI50,RXF 393,1.37 µM (inactive)
same,GI50,NCI/ADR-RES,2.94 µM (inactive)
same,GI50,SK-MEL-2,2.75 µM (inactive)
same,GI50,A549,5.74 µM (inactive)
same,GI50,CCRF-CEM,1.15 µM (inactive)
same,GI50,CAKI-1,2.85 µM (inactive)
same,GI50,LOX IMVI,1.95 µM (inactive)
same,GI50,MCF7,6.07 µM (inactive)
same,GI50,Malme-3M,3.02 µM (inactive)
same,GI50,DMS-114,4.57 µM (inactive)
same,GI50,M19-MEL,12 µM (inactive)
same,GI50,SNB-78,7.08 µM (inactive)
same,GI50,SK-MEL-5,7.33 µM (inactive)
same,GI50,SK-OV-3,13.8 µM (inactive)
CCC1(O)CC(c2ccccc2)N(C)C(c2ccccc2)C1 (centres undefined),GI50,SNB-75,> 100 µM (inactive)
same,GI50,SW-620,> 100 µM (inactive)
same,GI50,HL-60,69.2 µM (inactive)
same,GI50,SF-295,> 100 µM (inactive)
same,GI50,SF-539,> 100 µM (inactive)
same,GI50,OVCAR-4,> 100 µM (inactive)
same,GI50,HT-29,97.9 µM (inactive)
same,GI50,NCI-H522,94 µM (inactive)
same,GI50,NCI-H226,> 100 µM (inactive)
same,GI50,NCI-H23,> 100 µM (inactive)
same,GI50,OVCAR-8,> 100 µM (inactive)
same,GI50,UACC-257,> 100 µM (inactive)
same,GI50,RXF 631,> 100 µM (inactive)
same,GI50,HCT-15,> 100 µM
same,GI50,U-251,> 100 µM (inactive)
same,GI50,SNB-19,> 100 µM (inactive)
same,GI50,KM12,> 100 µM (inactive)
same,GI50,HOP-62,> 100 µM (inactive)
same,GI50,DMS-273,> 100 µM (inactive)
same,GI50,MOLT-4,> 100 µM (inactive)
same,GI50,SF-268,> 100 µM (inactive)
same,GI50,UO-31,> 100 µM (inactive)
same,GI50,NCI-H460,> 100 µM (inactive)
same,GI50,OVCAR-3,> 100 µM (inactive)
same,GI50,TK-10,> 100 µM (inactive)
same,GI50,A498,> 100 µM (inactive)
same,GI50,K562,94.2 µM (inactive)
same,GI50,HOP-92,> 100 µM (inactive)
same,GI50,HCT-116,86.9 µM (inactive)
same,GI50,786-0,> 100 µM (inactive)
same,GI50,SN12C,> 100 µM (inactive)
same,GI50,SK-MEL-28,> 100 µM (inactive)
same,GI50,OVCAR-5,> 100 µM (inactive)
same,GI50,IGROV-1,> 100 µM (inactive)
same,GI50,COLO 205,> 100 µM (inactive)
same,GI50,EKVX,> 100 µM (inactive)
same,GI50,ACHN,> 100 µM (inactive)
same,GI50,DLD-1,> 100 µM (inactive)
same,GI50,HCC 2998,> 100 µM (inactive)
same,GI50,KM-20L2,> 100 µM (inactive)
same,GI50,UACC-62,> 100 µM (inactive)
same,GI50,RXF 393,> 100 µM (inactive)
same,GI50,M14,> 100 µM (inactive)
same,GI50,SK-MEL-2,> 100 µM (inactive)
same,GI50,A549,> 100 µM (inactive)
same,GI50,CCRF-CEM,> 100 µM (inactive)
same,GI50,CAKI-1,> 100 µM (inactive)
same,GI50,LOX IMVI,> 100 µM (inactive)
same,GI50,Malme-3M,> 100 µM (inactive)
same,GI50,DMS-114,> 100 µM (inactive)
same,GI50,M19-MEL,> 100 µM (inactive)
same,GI50,SNB-78,> 100 µM (inactive)
same,GI50,LXFL 529,> 100 µM (inactive)
same,GI50,SK-MEL-5,> 100 µM (inactive)
same,GI50,SK-OV-3,> 100 µM (inactive)
C/C=C1\C=C(OC)CN(CCc2c[nH]c3ccccc23)C1,GI50,SNB-75,38.9 µM (inactive)
same,GI50,SW-620,70.3 µM (inactive)
same,GI50,HL-60,61 µM (inactive)
same,GI50,SF-295,27.9 µM (inactive)
same,GI50,SF-539,> 100 µM (inactive)
same,GI50,OVCAR-4,39.5 µM (inactive)
same,GI50,HT-29,25.4 µM (inactive)
same,GI50,NCI-H522,46 µM (inactive)
same,GI50,NCI-H226,27.2 µM (inactive)
same,GI50,NCI-H23,> 100 µM (inactive)
same,GI50,OVCAR-8,> 100 µM (inactive)
same,GI50,UACC-257,48.4 µM (inactive)
same,GI50,HCT-15,56.6 µM
same,GI50,SNB-19,> 100 µM (inactive)
same,GI50,KM12,52.2 µM (inactive)
same,GI50,HOP-18,> 10 µM (inactive)
same,GI50,HOP-62,73.5 µM (inactive)
same,GI50,DMS-273,49.7 µM (inactive)
same,GI50,MOLT-4,> 100 µM (inactive)
same,GI50,SF-268,19 µM (inactive)
same,GI50,UO-31,75 µM (inactive)
same,GI50,NCI-H460,26 µM (inactive)
same,GI50,OVCAR-3,53.5 µM (inactive)
same,GI50,XF498,32.9 µM (inactive)
same,GI50,TK-10,> 100 µM (inactive)
same,GI50,A498,44 µM (inactive)
same,GI50,K562,72.3 µM (inactive)
same,GI50,HCT-116,36.4 µM (inactive)
same,GI50,RPMI-8226,73.8 µM (inactive)
same,GI50,786-0,59 µM (inactive)
same,GI50,SN12C,59.6 µM (inactive)
same,GI50,IGROV-1,> 100 µM (inactive)
same,GI50,COLO 205,34.3 µM (inactive)
same,GI50,SR,61.8 µM (inactive)
same,GI50,EKVX,60.7 µM (inactive)
same,GI50,ACHN,> 100 µM (inactive)
same,GI50,DLD-1,> 100 µM (inactive)
same,GI50,HCC 2998,18 µM (inactive)
same,GI50,KM-20L2,37.6 µM (inactive)
same,GI50,UACC-62,41.3 µM (inactive)
same,GI50,M14,27.7 µM (inactive)
same,GI50,SK-MEL-2,43.3 µM (inactive)
same,GI50,A549,80.7 µM (inactive)
same,GI50,CCRF-CEM,> 100 µM (inactive)
same,GI50,LOX IMVI,23.2 µM (inactive)
same,GI50,Malme-3M,22.5 µM (inactive)
same,GI50,DMS-114,43.4 µM (inactive)
same,GI50,M19-MEL,79.8 µM (inactive)
same,GI50,LXFL 529,9.4 µM (inactive)
same,GI50,SK-MEL-5,20.2 µM (inactive)
